The source of these data is the NIST ThermoML archive (doi:10.1016/j.tca.2015.01.003).

A short description of the series: wn = mass fraction of the nth substance listed. The note with it: 288.15 K, 100 kPa, Liquid, Vibrating tube method.

± gives the expanded uncertainty stated by the source.

What is called mass density is the mass of a sample divided by its volume. For the molecule `O=S(=O)([O-])[O-].[Li+].[Li+]` [lithium sulfate] + O, the mass density (w1 = 0.2601) was 1237.48 ± 1.6 kg/m3.

Consider `O=S(=O)([O-])[O-].[K+].[K+]` [potassium sulfate] + O, for which the mass density (w1 = 0.0924) was 1077.03 ± 1.2 kg/m3.
